In ChEMBL document CHEMBL1149774, “Synthesis of N-(5,7-diamino-3-phenyl-quinoxalin-2-yl)-3,4,5-substituted anilines and N-[4[(5,7-diamino-3-phenylquinoxalin-2-yl)amino]benzoyl]-l-glutamic acid diethyl ester: evaluation of in vitro anti-cancer and anti-folate activities” (Eur J Med Chem, 2008):

Columns and labels:
Assay type in all cases: functional
HOP-62 = test: Growth inhibition of human HOP62 cells after 48 hrs by SRB staining method; settings: HOP-62, 48 h
NCI-H23 = test: Growth inhibition of human NCI-H23 cells after 48 hrs by SRB staining method; settings: NCI-H23, 48 h
NCI-H322M = test: Growth inhibition of human NCI-H322M cells after 48 hrs by SRB staining method
NCI-H460 = test: Growth inhibition of human NCI-H460 cells after 48 hrs by SRB staining method; settings: NCI-H460, 48 h
NCI-H522 = test: Growth inhibition of human NCI-H522 cells after 48 hrs by SRB staining method; settings: NCI-H522, 48 h
HCT-116 = test: Growth inhibition of human HCT116 cells after 48 hrs by SRB staining method; settings: HCT-116, 48 h
HCT-15 = test: Growth inhibition of human HCT15 cells after 48 hrs by SRB staining method; settings: HCT-15, 48 h
KM12 = test: Growth inhibition of human KM12 cells after 48 hrs by SRB staining method; settings: KM12, 48 h
SF-295 = test: Growth inhibition of human SF295 cells after 48 hrs by SRB staining method; settings: SF-295, 48 h
U-251 = test: Growth inhibition of human U251 cells after 48 hrs by SRB staining method; settings: U-251, 48 h
LOX IMVI = test: Growth inhibition of human LOX IMVI cells after 48 hrs by SRB staining method
Malme-3M = test: Growth inhibition of human MALME-3M cells after 48 hrs by SRB staining method
SK-MEL-2 = test: Growth inhibition of human SK-MEL-2 cells after 48 hrs by SRB staining method; settings: SK-MEL-2, 48 h
SK-MEL-28 = test: Growth inhibition of human SK-MEL-28 cells after 48 hrs by SRB staining method; settings: SK-MEL-28, 48 h
SK-MEL-5 = test: Growth inhibition of human SK-MEL-5 cells after 48 hrs by SRB staining method; settings: SK-MEL-5, 48 h
OVCAR-3 = test: Growth inhibition of human OVCAR-3 cells after 48 hrs by SRB staining method; settings: OVCAR-3, 48 h
OVCAR-4 = test: Growth inhibition of human OVCAR4 cells after 48 hrs by SRB staining method; settings: OVCAR-4, 48 h
OVCAR-5 = test: Growth inhibition of human OVCAR5 cells after 48 hrs by SRB staining method; settings: OVCAR-5, 48 h
OVCAR-8 = test: Growth inhibition of human OVCAR8 cells after 48 hrs by SRB staining method; settings: OVCAR-8, 48 h
SK-OV-3 = test: Growth inhibition of human SKOV3 cells after 48 hrs by SRB staining method; settings: SK-OV-3, 48 h
786-0 = test: Growth inhibition of human 786-0 cells after 48 hrs by SRB staining method; settings: 786-0, 48 h
A498 = test: Growth inhibition of human A498 cells after 48 hrs by SRB staining method; settings: A498, 48 h
SN12C = test: Growth inhibition of human SN12C cells after 48 hrs by SRB staining method
UO-31 = test: Growth inhibition of human UO31 cells after 48 hrs by SRB staining method; settings: UO-31, 48 h
PC-3 = test: Growth inhibition of human PC3 cells after 48 hrs by SRB staining method; settings: PC-3, 48 h
MCF7 = test: Growth inhibition of human MCF7 cells after 48 hrs by SRB staining method; settings: MCF7, 48 h
MDA-MB-231 = test: Growth inhibition of human MDA-MB-231 cells after 48 hrs by SRB staining method; settings: MDA-MB-231, 48 h
BT-549 = test: Growth inhibition of human BT549 cells after 48 hrs by SRB staining method; settings: BT-549, 48 h
A549 = test: Growth inhibition of human A549 cells after 48 hrs by SRB staining method; settings: A549, 48 h
SW-620 = test: Growth inhibition of human SW620 cells after 48 hrs by SRB staining method; settings: SW-620, 48 h
RPMI-8226 = test: Growth inhibition of human RPMI8226 cells after 48 hrs by SRB staining method; settings: RPMI-8226, 48 h
SR = test: Growth inhibition of human SR cells after 48 hrs by SRB staining method
EKVX = test: Growth inhibition of human EKVX cells after 48 hrs by SRB staining method
[1] = read-out: pLC50 (the source's name) (converted)

`COc1cc(Nc2nc3cc(N)cc(N)c3nc2-c2ccccc2)cc(OC)c1OC` was tested, and the GI50 (HOP-62) was 16.2 µM, the LC50 (HOP-62) was 72.4 µM and the TGI (HOP-62; read-out: pTGI (converted)) was 34.7 µM. The GI50 (NCI-H23) was 25.1 µM, the LC50 (NCI-H23) was > 100 µM and the TGI (NCI-H23; read-out: pTGI (converted)) was 75.9 µM. The LC50 (NCI-H322M) was > 100 µM, the GI50 (NCI-H460) was 17 µM and the LC50 (concentration killing 50% of cells) (NCI-H460) was > 100 µM. For the same compound, the TGI (NCI-H460; read-out: pTGI (converted)) was 52.5 µM, the GI50 (NCI-H522) was 18.2 µM and the LC50 (NCI-H522) was > 100 µM. The TGI (NCI-H522; read-out: pTGI (converted)) was 53.7 µM, the GI50 (HCT-116) was 15.5 µM and the LC50 (HCT-116) was 75.9 µM. The TGI (HCT-116; read-out: pTGI (converted)) was 33.9 µM, the GI50 (HCT-15) was 15.1 µM and the LC50 (HCT-15) was > 100 µM. It also gave a TGI (HCT-15; read-out: pTGI (converted)) of 45.7 µM, a GI50 (KM12) of 10.7 µM and an LC50 (KM12) of 81.3 µM. For the same compound, the TGI (KM12; read-out: pTGI (converted)) was 29.5 µM, the GI50 (SF-295) was 15.8 µM and the LC50 (SF-295) was > 100 µM. The TGI (SF-295; read-out: pTGI (converted)) was 42.7 µM, the GI50 (U-251) was 24.5 µM and the LC50 (50% lethal concentration) (U-251) was > 100 µM. For the same compound, the TGI (U-251; read-out: pTGI (converted)) was > 100 µM, the GI50 (LOX IMVI) was 18.6 µM and the LC50 (LOX IMVI) was > 100 µM. It also gave a TGI (LOX IMVI; read-out: pTGI (converted)) of 49 µM, a GI50 (Malme-3M) of 12.9 µM and an LC50 (Malme-3M) of 61.7 µM. For the same compound, the TGI (Malme-3M; read-out: pTGI (converted)) was 28.2 µM, the GI50 (SK-MEL-2) was 15.8 µM and the LC50 (SK-MEL-2) was 77.6 µM. It also gave a TGI (SK-MEL-2; read-out: pTGI (converted)) of 35.5 µM, a GI50 (SK-MEL-28) of 1.45 µM and a CC50 (SK-MEL-28; [1]) of 63.1 µM. For the same compound, the TGI (SK-MEL-28; read-out: pTGI (converted)) was 20.9 µM, the GI50 (SK-MEL-5) was 12.9 µM and the LC50 (SK-MEL-5) was 58.9 µM. The TGI (SK-MEL-5; read-out: pTGI (converted)) was 27.5 µM, the GI50 (OVCAR-3) was 14.1 µM and the LC50 (OVCAR-3) was 97.7 µM. It also gave a TGI (OVCAR-3; read-out: pTGI (converted)) of 37.2 µM, a GI50 (OVCAR-4) of 0.0316 µM and an LC50 (OVCAR-4) of 25.7 µM. For the same compound, the TGI (OVCAR-4; read-out: pTGI (converted)) was 0.891 µM, the GI50 (OVCAR-5) was 21.4 µM and the LC50 (OVCAR-5) was > 100 µM. The TGI (OVCAR-5; read-out: pTGI (converted)) was 46.8 µM, the GI50 (OVCAR-8) was 15.5 µM and the CC50 (OVCAR-8; [1]) was 79.4 µM. For the same compound, the TGI (OVCAR-8; read-out: pTGI (converted)) was 34.7 µM, the GI50 (SK-OV-3) was 22.9 µM and the CC50 (SK-OV-3; [1]) was > 100 µM. For the same compound, the TGI (SK-OV-3; read-out: pTGI (converted)) was 57.5 µM, the GI50 (786-0) was 14.5 µM and the CC50 (786-0; [1]) was > 100 µM. For the same compound, the TGI (786-0; read-out: pTGI (converted)) was 40.7 µM, the GI50 (A498) was 31.6 µM and the CC50 (A498; [1]) was > 100 µM. For the same compound, the TGI (A498; read-out: pTGI (converted)) was > 100 µM, the GI50 (SN12C) was 20.4 µM and the CC50 (SN12C; [1]) was > 100 µM. For the same compound, the TGI (SN12C; read-out: pTGI (converted)) was 83.2 µM, the GI50 (UO-31) was 15.1 µM and the CC50 (UO-31; [1]) was > 100 µM. The TGI (UO-31; read-out: pTGI (converted)) was 91.2 µM, the GI50 (PC-3) was 14.1 µM and the CC50 (PC-3; [1]) was > 100 µM. The TGI (PC-3; read-out: pTGI (converted)) was 58.9 µM, the GI50 (MCF7) was 25.7 µM and the CC50 (MCF7; [1]) was > 100 µM. For the same compound, the TGI (MCF7; read-out: pTGI (converted)) was 95.5 µM, the GI50 (MDA-MB-231) was 11.2 µM and the CC50 (MDA-MB-231; [1]) was 77.6 µM. The TGI (MDA-MB-231; read-out: pTGI (converted)) was 29.5 µM, the GI50 (BT-549) was 17 µM and the CC50 (BT-549; [1]) was 67.6 µM. For the same compound, the TGI (BT-549; read-out: pTGI (converted)) was 17 µM, the GI50 (A549) was 29.5 µM and the CC50 (A549; [1]) was > 100 µM. The TGI (A549; read-out: pTGI (converted)) was > 100 µM, the GI50 (SW-620) was 24 µM and the CC50 (SW-620; [1]) was > 100 µM. The TGI (SW-620; read-out: pTGI (converted)) was > 100 µM, the GI50 (RPMI-8226) was 12.3 µM and the CC50 (RPMI-8226; [1]) was 85.1 µM. The TGI (RPMI-8226; read-out: pTGI (converted)) was 32.4 µM, the GI50 (SR) was 3.31 µM and the CC50 (SR; [1]) was 72.4 µM. For the same compound, the TGI (SR; read-out: pTGI (converted)) was 15.8 µM, the GI50 (EKVX) was 17.8 µM and the CC50 (EKVX; [1]) was > 100 µM. The TGI (EKVX; read-out: pTGI (converted)) was 47.9 µM.
